Reference: patent US20140093513A1, “METHODS OF LOWERING PROPROTEIN CONVERSATE SUBTILISIN/KEXIN TYPE 9 (PCSK9)” (Catabasis Pharmaceuticals, Inc., priority 2012, published 2014)

Tests used:
[1] = tested on: Zucker fa/fa Rat model of Dyslipidemia; experiment: Plasma triglyceride level in the Zucker fa/fa rat model of dyslipidemia; type: in vivo; settings: Zucker rats, po qd, I-8 at 10, 30, 100 and 300 mg/kg; niacin/EPA 100/200 mg/kg; day 4 fed blood sample, FIG. 3
Experimental: Male Zucker rats (HsdHlr: Zucker-Lepr̂fa) between 8-10 weeks of age were purchased from Harlan and maintained on Purina Rodent Diet (5001) for the duration of the study. Animals were randomized and assigned to treatment arms based on body weight and plasma triglyceride (TG) levels (n=8). Inclusion criteria for the study include body weight >300 grams and fed TG levels in plasma >800 mg/dL. Dosing will be initiated on day 1 and continue through day 5. Dosing will be daily (qd) by oral gavage (po) for all treatment arms (Compound I-8 was administered orally at 4 different doses, 10, 30, 100 and 300 mg/kg; in addition, a combination of niacin/EPA in a ratio of 100/200 mg/kg was also employed). Body weights will be measured for all rats on days 1 through 5. On day 4, a blood sample (fed) will be collected from each rat, processed for plasma and stored at −80° C. Plasma triglyceride level was determined from commercial kits using standard protocols. […] Because compound I-8 was able to lower fed plasma triglyceride, it is useful to treat dyslipidemia as well as other diseases such as type I hyperlipoproteinemia and type 5 hyperlipoproteinemia.

PCSK9 = PCSK9 secretion assay in HepG2 cells (PCSK9 ELISA); type: cell-based; settings: for IC50: 16 hours incubation, at least 6 concentrations
Procedure, shortened: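 HepG2 cells in serum-free DMEM with compound added in FBS (ethanol-matched) and incubated 16 hours, in triplicate. Secreted PCSK9 in supernatant measured by ELISA (A450), with AlamarBlue viability check. IC50 obtained from at least 6 concentrations.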

ApoE3Leiden mice = experiment: Plasma cholesterol and triglycerides in ApoE3Leiden mice on Western type diet, 2 and 4 weeks of treatment; type: in vivo; settings: female APOE*3Leiden mice, WTD, I-8 0.75% w/w, atorvastatin 0.0015% w/w in diet
Experimental: The study was conducted using female APOE*3Leiden mice (groups of each n=10) and one untreated reference control group on chow (n=5). To induce dyslipidemia, a high cholesterol Western type diet containing 1% cholesterol, 15% cacao butter, 40.5% sucrose and 1% corn oil (WTD) was fed to the mice for a total experimental period of 20 weeks (of which 4 weeks are a run-in period).
The dyslipidemic mice were grouped on the basis of plasma cholesterol at t=0 assayed in 4 h fasting blood. Mice with low cholesterol after the run-in period were excluded so that homogenous experimental groups were obtained. A group of reference mice (n=5) remained on a chow diet during the complete study period (normolipidemic reference mice).
This mix was then added to the master mix (containing the rest of the ingredients) and mixed thoroughly. The diet was frozen to −20° C. On the subsequent day, the diet was broken into small pellets (approx 5 g per piece) and freeze dried, and stored in vacuum sealed bags (approx 500 g) at −20° C. until use. The diets were refreshed daily and unused diet was discarded.
1) Body weight at −4, 0, 2, 4 weeks 2) Food intake (g/day/mouse) at 0, 2, 4 weeks (per cage) 3) Plasma total cholesterol at −4, 0, 2, 4 weeks (individually) 4) Plasma triglycerides at −4, 0, 2, 4 weeks (individually) 5) Lipoprotein profiles at 0 (pool of all animals) and 4 weeks (cholesterol distribution over VLDL, LDL and HDL-sized particles, analysis on group level).
EDTA plasma was collected in weeks −4, 0, 2 and 4 weeks. Plasma cholesterol, plasma triglyceride levels and lipoprotein profileswere assayed immediately in fresh plasma.

ApoE*3 Leiden mice = experiment: Plasma lipids and liver weight of ApoE*3 Leiden mice on Western type diet, 16 weeks of treatment; type: in vivo; settings: I-8 in WTD at 7.5 g/kg
Experimental: The same experimental design used in example 6 was used. Two treatment groups were used (n=15). The control animals were kept on a Western type diet (WTD) consisting of 1% cholesterol, 15% cacao butter, 40.5% sucrose, and 1% corn oil. For the treatment group, compound I-8 was administered in the above WTD at a ratio of 7.5 g/kg. Animals were maintained on the WTD or treatment group for 16 weeks. At the conclusion of the study, plasma cholesterol and triglyceride levels were recorded, as well as the weight of the liver. There was a significant decrease in plasma cholesterol, triglyceride levels as well as liver weight in the treatment group. After 16 weeks of treatment, the cholesterol level of the treatment group was 420 mg/dL, compared with a level of 750 mg/dL for the control group; the triglyceride level was 110 mg/dL, compared with a level of 160 mg/dL for the control group.

CC/C=C\C/C=C\C/C=C\C/C=C\C/C=C\CCCC(=O)NCCNC(=O)c1cccnc1 [Compound I-8, N-(2-(5Z,8Z,11Z,14Z,17Z)-eicosa-5,8,11,14,17-pentaenamidoethyl)nicotinamide]
fed plasma triglyceride level [1]: dose dependent decrease | PCSK9 levels in HepG2 cells incubated with atorvastatin (PCSK9; HepG2 cells incubated with 10 μM of atorvastatin along with the test article, FIG. 2): decrease PCSK9 levels in a dose response manner | IC50 (PCSK9; HepG2 cells): < 25 µM | lowering of PCSK9 (PCSK9; HepG2 cells, at 25 and 50 μM, FIG. 1): significant lowering of PCSK9 | plasma cholesterol at t=2 weeks (ApoE3Leiden mice; 2 weeks of treatment, FIG. 4): statistically significant reduction | plasma cholesterol after 4 weeks of treatment (ApoE3Leiden mice; 4 weeks, FIG. 5): Comparable level of cholesterol reduction | plasma triglyceride levels after 4 weeks of treatment (ApoE3Leiden mice; 4 weeks, FIG. 6): significant reduction | liver weight (ApoE*3 Leiden mice; FIG. 7): statistically significant drop | triglyceride level after 16 weeks of treatment (ApoE*3 Leiden mice; control group 160 mg/dL): 110 mg/dL | cholesterol level after 16 weeks of treatment (ApoE*3 Leiden mice; control group 750 mg/dL): 420 mg/dL

CC/C=C\C/C=C\C/C=C\C/C=C\C/C=C\CCCC(=O)N1CCC(NC(=O)C(C)(C)Oc2ccc(C(=O)c3ccc(Cl)cc3)cc2)CC1 [VII-19, 2-(4-(4-chlorobenzoyl)phenoxy)-N-(1-((5Z,8Z,11Z,14Z,17Z)-icosa-5,8,11,14,17-pentaenoyl)piperidin-4-yl)-2-methylpropanamide]
IC50 (PCSK9; HepG2 cells): < 25 µM

CC/C=C\C/C=C\C/C=C\C/C=C\C/C=C\CCCC(=O)N1CCC(CNC(=O)C(C)(C)Oc2ccc(C(=O)c3ccc(Cl)cc3)cc2)CC1 [VII-20, 2-(4-(4-chlorobenzoyl)phenoxy)-N-((1-((5Z,8Z,11Z,14Z,17Z)-icosa-5,8,11,14,17-pentaenoyl)piperidin-4-yl)methyl)-2-methylpropanamide]
IC50 (PCSK9; HepG2 cells): < 25 µM

CC/C=C\C/C=C\C/C=C\C/C=C\C/C=C\CCCC(=O)N1CC[C@@H](NC(=O)C(C)(C)Oc2ccc(C(=O)c3ccc(Cl)cc3)cc2)C1 [VII-21, 2-(4-(4-chlorobenzoyl)phenoxy)-N—((R)-1-((5Z,8Z,11Z,14Z,17Z)-icosa-5,8,11,14,17-pentaenoyl)pyrrolidin-3-yl)-2-methylpropanamide]
IC50 (PCSK9; HepG2 cells): < 25 µM

CC/C=C\C/C=C\C/C=C\C/C=C\C/C=C\CCCC(=O)N1CC[C@H](NC(=O)C(C)(C)Oc2ccc(C(=O)c3ccc(Cl)cc3)cc2)C1 [VII-22, 2-(4-(4-chlorobenzoyl)phenoxy)-N—((S)-1-((5Z,8Z,11Z,14Z,17Z)-icosa-5,8,11,14,17-pentaenoyl)pyrrolidin-3-yl)-2-methylpropanamide]
IC50 (PCSK9; HepG2 cells): < 25 µM

CC/C=C\C/C=C\C/C=C\C/C=C\C/C=C\CCCC(=O)N1CCC[C@@H]1CNC(=O)C(C)(C)Oc1ccc(C(=O)c2ccc(Cl)cc2)cc1 [VII-23, 2-(4-(4-chlorobenzoyl)phenoxy)-N—(((R)-1-((5Z,8Z,11Z,14Z,17Z)-icosa-5,8,11,14,17-pentaenoyl)pyrrolidin-2-yl)methyl)-2-methylpropanamide]
IC50 (PCSK9; HepG2 cells): < 25 µM

CC/C=C\C/C=C\C/C=C\C/C=C\C/C=C\CCCC(=O)N1CCC[C@H]1CNC(=O)C(C)(C)Oc1ccc(C(=O)c2ccc(Cl)cc2)cc1 [VII-24, 2-(4-(4-chlorobenzoyl)phenoxy)-N—(((S)-1-((5Z,8Z,11Z,14Z,17Z)-icosa-5,8,11,14,17-pentaenoyl)pyrrolidin-2-yl)methyl)-2-methylpropanamide]
IC50 (PCSK9; HepG2 cells): > 50 µM

CC/C=C\C/C=C\C/C=C\C/C=C\C/C=C\CCCC(=O)NC1CCN(C(=O)C(C)(C)Oc2ccc(C(=O)c3ccc(Cl)cc3)cc2)CC1 [VII-25, (5Z,8Z,11Z,14Z,17Z)—N-(1-(2-(4-(4-chlorobenzoyl)phenoxy)-2-methylpropanoyl)piperidin-4-yl)icosa-5,8,11,14,17-pentaenamide]
IC50 (PCSK9; HepG2 cells): < 25 µM

CC/C=C\C/C=C\C/C=C\C/C=C\C/C=C\CCCC(=O)Nc1nc(C)ncc1CNC(=O)C(C)(C)Oc1ccc(C(=O)c2ccc(Cl)cc2)cc1 [VII-41, (5Z,8Z,11Z,14Z,17Z)—N-(5-((2-(4-(4-chlorobenzoyl)phenoxy)-2-methylpropanamido)methyl)-2-methylpyrimidin-4-yl)icosa-5,8,11,14,17-pentaenamide]
IC50 (PCSK9; HepG2 cells): 25 to 50 µM

CC/C=C\C/C=C\C/C=C\C/C=C\C/C=C\CCCC(=O)N1CCN(C(=O)C(C)(C)Oc2ccc(C(=O)c3ccc(Cl)cc3)cc2)CC1 [VII-42, (5Z,8Z,11Z,14Z,17Z)-1-(4-(2-(4-(4-chlorobenzoyl)phenoxy)-2-methylpropanoyl)piperazin-1-yl)icosa-5,8,11,14,17-pentaen-1-one]
IC50 (PCSK9; HepG2 cells): < 25 µM

CC(C)c1c(C(=O)Nc2ccccc2)c(-c2ccccc2)c(-c2ccc(F)cc2)n1CC[C@@H](O)C[C@@H](O)CC(=O)O [atorvastatin, reference compound]
PCSK9 secretion (PCSK9; HepG2 cells, 10 μM atorvastatin, FIG. 2): increases PCSK9 secretion
